Three compounds from US9708309B2, “Arylcyclopropylamine based demethylase inhibitors of LSD1 and their medical use” (Oryzon Genomics S.A., priority 2010, dated 2017) can be followed below.

Structures are written as SMILES. “Also recorded” adds a separate entry of the source.

The target of one assay is Human recombinant MAO-A (Homo sapiens (Human), UniProt P21397). Description: biochemical.
In the next assay the target is LSD1 protein (Homo sapiens (Human), UniProt O60341). The conditions noted are these: 25° C., H3-K4me2 peptide.
A further assay concerns the target MAO-B (Homo sapiens (Human), UniProt P27338). Conditions: ratio of kinact/KI MAO-B over MAO-A.

Chain of Human recombinant MAO-A (P21397 whole entry): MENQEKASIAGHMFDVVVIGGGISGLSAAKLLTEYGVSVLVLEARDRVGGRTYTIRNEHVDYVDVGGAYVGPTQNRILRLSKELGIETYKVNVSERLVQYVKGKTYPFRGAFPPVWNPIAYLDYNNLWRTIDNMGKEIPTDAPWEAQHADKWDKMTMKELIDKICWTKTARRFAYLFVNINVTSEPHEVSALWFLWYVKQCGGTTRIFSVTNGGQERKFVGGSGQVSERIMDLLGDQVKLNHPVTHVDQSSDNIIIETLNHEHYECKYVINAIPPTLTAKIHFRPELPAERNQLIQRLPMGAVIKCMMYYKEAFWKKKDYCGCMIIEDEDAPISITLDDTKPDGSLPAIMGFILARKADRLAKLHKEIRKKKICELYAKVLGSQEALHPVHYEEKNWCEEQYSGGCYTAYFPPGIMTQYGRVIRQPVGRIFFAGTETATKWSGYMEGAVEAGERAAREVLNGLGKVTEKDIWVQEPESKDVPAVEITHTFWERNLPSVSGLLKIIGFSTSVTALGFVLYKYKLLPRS
Chain of MAO-B (P27338 whole entry): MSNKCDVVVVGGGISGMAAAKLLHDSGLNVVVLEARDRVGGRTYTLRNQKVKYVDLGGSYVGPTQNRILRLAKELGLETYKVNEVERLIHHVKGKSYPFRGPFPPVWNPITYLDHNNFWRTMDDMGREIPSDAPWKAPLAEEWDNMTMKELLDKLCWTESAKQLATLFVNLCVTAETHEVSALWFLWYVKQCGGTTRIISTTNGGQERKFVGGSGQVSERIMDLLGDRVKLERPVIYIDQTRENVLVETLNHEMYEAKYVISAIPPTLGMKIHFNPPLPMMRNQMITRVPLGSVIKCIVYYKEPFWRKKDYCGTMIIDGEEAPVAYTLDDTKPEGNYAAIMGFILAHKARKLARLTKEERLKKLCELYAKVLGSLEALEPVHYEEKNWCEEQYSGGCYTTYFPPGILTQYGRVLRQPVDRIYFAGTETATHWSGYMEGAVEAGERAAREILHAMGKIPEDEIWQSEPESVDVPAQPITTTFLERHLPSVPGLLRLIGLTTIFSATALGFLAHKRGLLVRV
Text for Human recombinant MAO-A: Human recombinant monoamine oxidase proteins MAO-A and MAO-B were purchased from Sigma Aldrich. […] In order to monitor MAO enzymatic activities and/or their inhibition rate by inhibitor(s) of interest, a fluorescent-based (inhibitor)-screening assay was set up. 3-(2-Aminophenyl)-3-oxopropanamine (kynuramine dihydrobromide, Sigma Aldrich), a non fluorescent compound was chosen as a substrate. Kynuramine is a non-specific substrate for both MAOs activities. While undergoing oxidative deamination by MAO activities, kynuramine is converted into 4-hydroxyquinoline (4-HQ), a resulting fluorescent product.
The monoamine oxidase activity was estimated by measuring the conversion of kynuramine into 4-hydroxyquinoline. Assays were conducted in 96-well black plates with clear bottom (Corning) in a final volume of 100 μL. […]
After leaving the enzyme(s) interacting with the inhibitor, 60 to 90 μM of kynuramine was added to each reaction for MAO-B and MAO-A assay respectively, and the reaction was left for 1 hour at 37° C. in the dark. […] The conversion of kynuramine to 4-hydroxyquinoline, was monitored by fluorescence (excitation at 320 nm, emission at 360 nm) using a microplate reader (Infinite 200, Tecan). Arbitrary units were used to measure levels of fluorescence produced in the absence and/or in the presence of inhibitor.
The Ki (IC50) of each inhibitor was determined at Vmax/2.
Experimental for LSD1 protein: The kinetic parameters of LSD1 demethylase inhibition were obtained using the peroxidase-coupled reaction method. […] The final DMSO concentration was 0.7% and constant in all assay wells.
The conversion of the Amplex® Red reagent to resorufin due to generation of H2O2 was continuously monitored by fluorescence (excitation at 540 nm, emission at 590 nm) using a microplate reader (Infinite 200, Tecan). A solution of 1 μM H2O2 was used to calibrate the fluorescence signal and the temperature was kept constant at 25° C.
Briefly, progress curves obtained in the presence of test compound were fit to derive kobs (k) based on the following equation:
The kobs values were then used to derive the kinetic constant by using the following equations (Kitz and Wilson analysis):
Experimental for MAO-B: For MAO-B, the protein was kept between 1.8 and 3.6 ng/ul (Sigma M7441) and kynuramine (Sigma) at 50 uM was used as substrate.

For orientation: Ki means a measure of affinity in units of concentration, obtained from inhibition or displacement. For the compound `Nc1nnc(CN[C@H]2C[C@@H]2c2ccc(OCc3cccc(F)c3)cc2)o1` (relative stereo) [Example 12, 5-((((trans)-2-(4-((3-fluorobenzyl)oxy)phenyl)cyclopropyl)amino)methyl)-1,3,4-oxadiazol-2-amine], the Ki on Human recombinant MAO-A lay within 1 to 40 µM.
As to `Nc1nnc(CN[C@H]2C[C@@H]2c2ccc(OCc3ccc(Cl)cc3)cc2)o1` (relative stereo) [Example 14, 5-((((trans)-2-(4-((4-chlorobenzyl)oxy)phenyl)cyclopropyl)amino)methyl)-1,3,4-oxadiazol-2-amine], the Ki at Human recombinant MAO-A lay in the range of 1 to 40 µM.
As for `C#CCN[C@@H]1CCc2ccccc21` [Rasagiline], the “Catalytic efficiency kinact/KI, LSD1” value on LSD1 protein is on record as “not active; also recorded: Inactive”. The “selectivity index kinact/KI for MAO-B/MAO-A” value at MAO-B amounted to 120.
